Assay results published in patent publication US20240209011A1, “HETEROAROMATIC PHOSPHONIUM SALTS FOR TREATING CANCER” (FLORATEK PHARMA S.A., priority 2021, published 2024).

Columns and labels:
Type in all cases: cell-based
bile duct PDX = experiment: Activity against bile duct PDX; settings: bile duct PDX growth; summary of Table 3
Procedure: (§1) PDX-derived cell cultures were obtained from tumors explanted from mice and isolated by mechanical and enzymatic dissociation. […] Cells were harvested and seeded in 96-wells plates at a density of 1.25 to 5×10^3 cells/well for cytotoxicity assays. Cells were incubated 48 h at 37° C. prior to addition of test molecules and vehicle (DMSO, 0.1%) at desired final concentrations. Cell viability was assessed before drugs' addition (To) and 5 days after test molecules addition by measuring ATP cell content using CellTiter-Glo® Luminescent Cell Viability Assay (Promega) according to the manufacturer's instructions. Luciferase activity was measured on a luminometer (PerkinElmer® EnVision™). Each concentration of compounds was tested in triplicate.
(§2) Viability was calculated as a percentage of ATP value compared to vehicle treated controls.
(§3) For PDX primary cell cultures, the tumour tissue was washed with PBS containing antibiotic-antimycotic and non-tumour tissue and necrotic tumour tissues were separated. The tumour tissue was transferred to a new dish and cut into 1-2 mm^3 fragments, resuspended in RPMI-1640 medium and centrifuged at 1,200 rpm for 6 min at room temperature. The pelleted material was resuspended with 15 mL of Tumour Cell Digestion Solution and incubated at 37° C. for 1 hour with agitation. Following further addition of media, centrifugation and passage through a […] cell strainer, the homogenous cell mixture was layered onto 15 mL of Ficoll-Paque PLUS in a 50 mL conical tube and centrifuged for 15 min at 1,600 rpm. The interface cells were collected, washed with media, separated by centrifugation at 1,200 rpm. The cell pellet was resuspended in serum free media supplemented with growth factors. 10,000 cells/wells were plated in a 96 well plate and incubated at 37° C., 5% CO2, 95% air and 100% relative humidity overnight. The cytotoxicity assay was conducted as above. IC50 values represent absolute IC50.

colon PDX = experiment: Activity against colon PDX; settings: for IC50: growth of colon PDX, Table 8; for selectivity among colon PDX: colon PDX CO-04-0722 and CO-04-0700 versus CO-04-0701
Procedure: as §1, §2, §3

head and neck PDX = experiment: Activity against head and neck PDX; settings: head and neck PDX growth; Table 11
Procedure: as §1, §2, §3

A549 = experiment: Cell viability assay (CellTiter-Blue/CellTiter-Glow); settings: Homo sapiens; lung carcinoma cell line A549; absolute IC50; 72 h
Procedure: (§4) Antitumor activity of the compounds and doxorubicin as a positive control was assessed by using the CellTiter-Blue Cell Viability Assay (Promega, #G8082) or CellTiter-Glow® Luminescent Cell Viability assay (Promega #G7572) according to the manufacturer's instructions. The compounds were tested at 5 or 6 concentrations in half-log increments (highest concentration 30 μM or 100 μM) in duplicate or triplicate well conditions.
(§5) Tumor cells were grown at 37° C. in a humidified atmosphere with 5% CO2 in RPMI 1640 or DMEM medium, supplemented with 10% (v/v) fetal calf serum and 50 μg/ml gentamicin for up to 20 passages, and were passaged once or twice weekly. Cells were harvested using TrypLE or PBS buffer containing 1 mM EDTA, and the percentage of viable cells is determined using a CASY Model TI cell counter (OMNI Life Science). Cells were harvested from exponential phase cultures, counted and plated in 96 well flat-bottom microtiter plates at a cell density depending on the cell line's growth rate (4,000-20,000 cells/well depending on the cell line's growth rate, up to 60,000 for hematological cancer cell lines) in RPMI 1640 or DMEM medium supplemented with 10% (v/v) fetal calf serum and 50 μg/ml gentamicin (140 μl/well). Cultures were incubated at 37° C. and 5% CO2 in a humidified atmosphere. After 24 h, 10 μl of test compounds or control medium were added, and left on the cells for another 72 h. Compounds were serially diluted in DMSO, transferred in cell culture medium, and added to the assay plates. The DMSO concentration was kept constant at <0.3% v/v across the assay plate. Viability of cells was quantified by the CellTiter-Blue® cell viability assay (Promega G8081) or CellTiter-Glow® Luminescent Cell Viability assay (Promega #G7572). Fluorescence (FU) was measured by using the EnSpire® multimode plate reader (Perkin Elmer) (excitation X=570 nm, emission λ=600 nm). Luminescence was measured with a microplate luminometer (Promega or PerkinElmer).
(§6) Sigmoidal concentration-response curves were fitted to the data points (test-versus-control, T/C values) obtained for each tumor model using 4 parameter non-linear curve fit (Charles River DRS Datawarehouse Software) or with GraphPad prism 5.02 software. IC50 values are reported as absolute IC50 values, being the concentration of test compound at the intersection of the concentration-response curves with T/C=50% Cell lines tested are presented in Table 1.

CALU-6 = experiment: as above; settings: Homo sapiens; lung carcinoma cell line CALU-6; absolute IC50; 72 h
Procedure: as §4, §5, §6

HCT-15 = experiment: as above; settings: Homo sapiens; colon carcinoma cell line HCT-15; absolute IC50; 72 h
Procedure: as §4, §5, §6

HT-29 = experiment: as above; settings: Homo sapiens; colon carcinoma cell line HT-29; absolute IC50; 72 h
Procedure: as §4, §5, §6

KM-12 = experiment: as above; settings: Homo sapiens, KM12; colon carcinoma cell line KM-12; absolute IC50
Procedure: as §4, §5, §6

Mia-Pa-Ca-2 = experiment: as above; settings: Homo sapiens, MIA PaCa-2; pancreatic carcinoma cell line Mia-Pa-Ca-2; absolute IC50; 72 h
Procedure: as §4, §5, §6

NCI-H460 = experiment: as above; settings: Homo sapiens; lung carcinoma cell line NCI-H460; absolute IC50; 72 h
Procedure: as §4, §5, §6

OVCAR-3 = experiment: as above; settings: Homo sapiens; ovarian carcinoma cell line OVCAR-3; absolute IC50; 72 h
Procedure: as §4, §5, §6

SF-268 = experiment: as above; settings: Homo sapiens; brain carcinoma cell line SF-268; absolute IC50; 72 h
Procedure: as §4, §5, §6

lymphoma PDX = experiment: Activity against lymphoma PDX; settings: lymphoma PDX growth; Table 17
Procedure: as §1, §2, §3

H1299 = experiment: Cell viability assay (CellTiter-Blue/CellTiter-Glow); settings: Homo sapiens, NCI-H1299; lung carcinoma cell line H1299; absolute IC50; 72 h
Procedure: as §4, §5, §6

K-562 = experiment: as above; settings: Homo sapiens, K562; leukaemia cell line K-562; absolute IC50; 72 h
Procedure: as §4, §5, §6

SK-OV-3 = experiment: as above; settings: Homo sapiens; ovarian carcinoma cell line SK-OV-3; absolute IC50; 72 h
Procedure: as §4, §5, §6

Row | IC50 (CALU-6) | IC50 (HCT-15) | IC50 (HT-29) | IC50 (NCI-H460) | IC50 (OVCAR-3) | Structure (SMILES) | IC50 (bile duct PDX) | IC50 (colon PDX) | IC50 (head and neck PDX) | IC50 (A549) | IC50 (KM-12) | IC50 (Mia-Pa-Ca-2) | IC50 (SF-268) | IC50 (lymphoma PDX) | IC50 (H1299) | IC50 (K-562) | IC50 (SK-OV-3) | selectivity among colon PDX (colon PDX)
1 | 1.14 µM | 9.3 µM | 9.3 µM | 5.04 µM | 2.36 µM | O=c1cc(-c2ccc(CCCC[P+](c3ccccc3)(c3ccccc3)c3ccccc3)cc2)oc2c3c(ccc12)OCO3.[Br-] [SND123, 4-[4-(6-oxo-[1,3]dioxolo[4,5-h]chromen-8-yl)phenyl]butyl-triphenylphosphonium bromide] | < 20 µM | < 20 µM | < 10 µM | 8.08 µM | 3 µM | 1.32 µM | 3.15 µM | < 5 µM | – | – | – | –
2 | 1.47 µM | 3.3 µM | 10.3 µM | 0.29 µM | 7.3 µM | O=c1cc(-c2ccc(CCCC[P+](c3ccccc3)(c3ccccc3)c3ccccc3)cc2)oc2c(O)c(O)ccc12 [SND118, 4-[4-(7,8-dihydroxy-4-oxo-chromen-2-yl)phenyl]butyltriphenyl-phosphonium bromide] | – | – | – | 12.5 µM | – | 1.9 µM | 15.6 µM | – | 1.28 µM | 0.14 µM | 6.35 µM | –
3 | 3.8 µM | – | 14.2 µM | 10.8 µM | 8.87 µM | COc1c(O)ccc2c(=O)cc(-c3ccc(CCCC[P+](c4ccccc4)(c4ccccc4)c4ccccc4)cc3)oc12.[Br-] [SND140, (4-(4-(7-hydroxy-8-methoxy-4-oxo-4H-chromen-2-yl)phenyl)butyl)triphenylphosphonium bromide] | < 20 µM | < 20 µM | < 10 µM | – | 5.6 µM | – | 9.5 µM | < 5 µM | – | – | – | –

Row | Structure (SMILES) | IC50 (CALU-6) | IC50 (HCT-15) | IC50 (HT-29) | IC50 (NCI-H460) | IC50 (OVCAR-3) | IC50 (bile duct PDX) | IC50 (colon PDX) | IC50 (head and neck PDX) | IC50 (A549) | IC50 (KM-12) | IC50 (Mia-Pa-Ca-2) | IC50 (SF-268) | IC50 (lymphoma PDX) | IC50 (H1299) | IC50 (K-562) | IC50 (SK-OV-3) | selectivity among colon PDX (colon PDX)
4 | CCNC(=O)Oc1ccc2c(=O)cc(-c3ccc(CCCC[P+](c4ccccc4)(c4ccccc4)c4ccccc4)cc3)oc2c1OC(=O)NCC.[Br-] [SND124, 4-[4-[7,8-Bis(ethylcarbamoyloxy)-4-oxo-chromen-2-yl]phenyl]-butyltriphenylphosphonium bromide] | – | 10 µM | 2.96 µM | – | – | < 20 µM | < 20 µM | < 10 µM | 11.2 µM | 2.7 µM | 4.8 µM | – | < 5 µM | 4.27 µM | 0.02 µM | 3.4 µM | marked selectivity toward CO-04-0722 and CO-04-0700
5 | CCNC(=O)Oc1ccc2c(=O)cc(-c3ccc(CCCC[P+](c4ccccc4)(c4ccccc4)c4ccccc4)cc3)oc2c1O.[Br-] [SND126A, 4-[4-[7-(Ethylcarbamoyloxy)-8-hydroxy-4-oxo-chromen-2-yl]phenyl]butyltriphenylphosphonium bromide] | – | – | – | – | 6.54 µM | < 20 µM | < 20 µM | < 10 µM | – | 3.2 µM | 0.96 µM | 10.7 µM | < 5 µM | – | – | – | marked selectivity toward CO-04-0722 and CO-04-0700
6 | CC(C)NC(=O)Oc1ccc2c(=O)cc(-c3ccc(CCCC[P+](c4ccccc4)(c4ccccc4)c4ccccc4)cc3)oc2c1O [SND127, 4-[4-[7-(Isopropylcarbamoyloxy)-8-hydroxy-4-oxo-chromen-2-yl]phenyl]butyltriphenylphosphonium bromide] | 7.13 µM | – | 6.4 µM | 5.58 µM | 5.7 µM | < 20 µM | – | – | 5.3 µM | – | 1.81 µM | 11.9 µM | – | 12.7 µM | 1.23 µM | 11.5 µM | –
